Data set [1] is described as follows: NR (neutral red) viability assay, IC-21 cells. The format is cell-based, Mus musculus. Conditions: mouse, IC-21, 72 h. The source says: (§1) The IC-21 (Mus musculus macrophage cells, TIB-186) and RAW 264.7 (Mus musculus macrophage cells, TIB-71) cell lines used in this study were obtained from the American Type Culture Collection (ATCC, Manassas, VA, USA). The selection of IC-21 and RAW 264.7 cell lines for studies on inflammation and antioxidant activity is based on two main reasons: the cell type and their origin. Firstly, both IC-21 and RAW 264.7 cell lines are macrophages, which play a crucial role in the immune system, being essential for the inflammatory response and regulation of oxidative stress. These cells have the capacity to produce pro-inflammatory cytokines, express transcription factors such as NF-κB, and generate NO, making them ideal models to understand inflammatory mechanisms. Moreover, macrophages are involved in the activation of Nrf2, a transcription factor critical for the antioxidant response, allowing these cell lines to enable a comprehensive assessment of antioxidant activity within an inflammatory context.
(§2) Cultivated in a Roswell Park Memorial Institute (RPMI) 1640 medium (RPMI 1640 Sigma-Aldrich, CAS No. R7755, St. Louis, MO, USA) supplemented with 2 mM L-glutamine (≥99% Sigma-Aldrich, CAS No. 56-85-9, St. Louis, MO, USA), 10% foetal bovine serum (FBS Sigma-Aldrich, CAS No. TMS-016, St. Louis, MO, USA), and 10,000 units of penicillin and 10 mg streptomycin mL^−1 (Sigma-Aldrich, CAS No. P4333, St. Louis, MO, USA) in culture flasks, the cells were maintained in an incubator under normoxic conditions (20–21% O2) and a humidified atmosphere (5% CO2, at 37 °C).
(§3) Stock solutions of the samples (extracts and compounds) were prepared at a concentration of 1 mM using dimethyl sulfoxide (DMSO ≥ 99.9% Sigma-Aldrich, CAS No. 67-68-5, St. Louis, MO, USA) as the solvent. Dilutions from these stock solutions were then made to achieve concentrations between 100 and 0.20 μg mL^−1 or μM in the culture medium, which contained 0.5% DMSO. A control group consisting only of the culture medium with 0.5% DMSO was also included to determine its potential cytotoxicity.
(§4) The 50% cytotoxic concentration (CC50), 50% inhibitory concentration (IC50), and half-maximal effective concentration (EC50) values were calculated using the sigmoidal dose–response function. All experiments were conducted in triplicate, and the data obtained were expressed as the mean and standard deviation. A two-way analysis of variance (ANOVA) combined with Dunnett’s multiple comparisons test (p < 0.001) was performed for the cytotoxicity, NF-κB inhibition, NO inhibition and Nrf2 activation assays, while a one-way ordinary ANOVA combined with Dunnett’s multiple comparisons test (p < 0.001) was conducted for the SOD assay. All statistical analyses were performed using GraphPad Prism version 10.0.0 (La Jolla, CA, USA, www.graphpad.com, accessed on 28 August 2024).
(§5) Cell viability was evaluated using a colorimetric assay in 96-well plates, employing 3-amino-7-dimethylamino-2-methylphenazine hydrochloride salt reagent (NR, Sigma-Aldrich, CAS No. 553-24-2, St. Louis, MO, USA). ACTD (≥95% Sigma-Aldrich, CAS No. 50-76-0, St. Louis, MO, USA) was used as a positive control, with a CC50 value of 0.01 μg mL^−1 for the extracts, or 0.008 μM for the compounds. The IC-21 and RAW 264.7 cell lines were cultured in 96-well plates at 37 °C with 5% CO2 until >90% confluency was achieved (1 × 10^4 cells per well). Subsequently, the cultures were treated with sample dilutions (100–0.20 μg mL^−1 or μM) for 72 h at 37 °C with 5% CO2 in phenol red-free RPMI. The supernatant was then discarded, and the cells were washed with phosphate-buffered saline (PBS) before being incubated with […] NR (50 μg mL^−1; 173 μM) for 3 h at 37 °C with 5% CO2. NR labelling was performed after DMSO treatment. […]

Data set [2] is described as follows: NR (neutral red) viability assay, RAW 264.7 cells. The format is cell-based, Mus musculus. The settings on record: mouse, RAW 264.7, 72 h.
From the text: as §1, §2, §3, §4, §5

Data set [3] relates to IC-21 and RAW 264.7 cell lines. Description: NR viability assay, value not assigned to one cell line. In kind it is cell-based, Mus musculus. Conditions: across IC-21 and RAW 264.7 / cell line not given, compounds series. The protocol:
(§6) Cell viability was evaluated using a colorimetric assay in 96-well plates, employing 3-amino-7-dimethylamino-2-methylphenazine hydrochloride salt reagent (NR, Sigma-Aldrich, CAS No. 553-24-2, St. Louis, MO, USA). ACTD (≥95% Sigma-Aldrich, CAS No. 50-76-0, St. Louis, MO, USA) was used as a positive control, with a CC50 value of 0.01 μg mL^−1 for the extracts, or 0.008 μM for the compounds. The IC-21 and RAW 264.7 cell lines were cultured in 96-well plates at 37 °C with 5% CO2 until >90% confluency was achieved (1 × 10^4 cells per well). Subsequently, the cultures were treated with sample dilutions (100–0.20 μg mL^−1 or μM) for 72 h at 37 °C with 5% CO2 in phenol red-free RPMI. The supernatant was then discarded, and the cells were washed with phosphate-buffered saline (PBS) before being incubated with […] NR (50 μg mL^−1; 173 μM) for 3 h at 37 °C with 5% CO2. NR labelling was performed after DMSO treatment. After incubation, the labelled sample dilutions were rapidly washed with a fixative solution composed of 1% calcium chloride (CaCl2 Sigma-Aldrich, CAS No. 10043-52-4, St. Louis, MO, USA) and 0.5% formaldehyde solution (≥36.0% in H2O Sigma-Aldrich, CAS No. 50-00-0, St. Louis, MO, USA), then diluted with 100 μL of the NR extraction solution. Finally, the plates were read at 540 nm using a microplate reader (Anthos 2020, version 2.0.5, Biochrom Ltd., Cambridge, UK).

Test in data set [4]: as above
In kind it is cell-based, Mus musculus. Conditions: mouse. As for the experimental part:
as §6

In data set [5] the test system is NF-κB. More on the design: method as in PMID 24853120, PMID 15668926. The settings on record: cited from earlier work.
The subject of data set [6] is Nrf2. Conditions: cited from earlier work.

Here are results for four compounds from publication PMC11395096, “Study of Pentacyclic Triterpenes from Lyophilised Aguaje: Anti-Inflammatory and Antioxidant Properties” (International Journal of Molecular Sciences, 2024).

Starred links: 1 amine or outer side, 2 acyl side, 3 side chain; linkers in the order of their positions; H or OH if unused. Positions of bridges follow the written chain, without caps; N, C: chain ends. Non-standard residues stand in square brackets, D forms with d. Residues, ends and D or L forms follow the SMILES beside them. Chains are numbered I, II in the order given. Actinocin(9to1) = Cc1c2oc3c(C)ccc(C(=O)[*:1])c3nc-2c(C(=O)[*:2])c(N)c1=O; NMeV = CN[C@H](C(=O)O)C(C)C; Sar = CNCC(=O)O

As a reminder, the CC50 is the concentration that lowers cell viability or growth by half. High values mean better tolerance by the cells, low ones harm at low concentration.

For `Cc1c2oc3c(C)ccc(C(=O)N[C@@H]4C(=O)N[C@H](C(C)C)C(=O)N5CCC[C@H]5C(=O)N(C)CC(=O)N(C)[C@@H](C(C)C)C(=O)O[C@@H]4C)c3nc-2c(C(=O)N[C@@H]2C(=O)N[C@H](C(C)C)C(=O)N3CCC[C@H]3C(=O)N(C)CC(=O)N(C)[C@@H](C(C)C)C(=O)O[C@@H]2C)c(N)c1=O` [ACTD, actinomycin D, reference compound] (I: T[dV]P[Sar][NMeV] / II: T[dV]P[Sar][NMeV]; ester I:1-I:C, II:1-II:C; linker I:N-II:N via Actinocin(9to1)), the CC50 at 72 h was 8.5 nM in data set [1] (compounds series); 0.0143 µg/mL in data set [1] (extracts series); 8.8 nM in data set [2] (compounds series); 0.0193 µg/mL in data set [2] (extracts series); 8.5 to 8.8 nM in data set [4] (across IC-21 and RAW 264.7 / cell line not given, compounds series); 0.01 µg/mL in data set [4] (cell line not stated, extracts series). The CC50 in data set [3] was 8 nM.

Regarding `COc1cc(/C=C/C(=O)CC(=O)/C=C/c2ccc(O)c(OC)c2)ccc1O` [curcumin], the “concentration capable of inhibiting NF-κB activation” value in data set [5] is 10 to 50 µM.

Turning to `O=c1c(O)c(-c2ccc(O)c(O)c2)oc2cc(O)cc(O)c12` [quercetin], in data set [5], the “concentration capable of inhibiting NF-κB activation” value is 25 to 100 µM.

On to `C[S+]([O-])CCCCN=C=S` (stereo not shown) [sulforaphane], for which, in data set [6], the “concentration activating the Nrf2 signalling pathway” value was 5 to 20 µM.
